# Experimental data from US8664258B2, “Primary amines and derivatives thereof as modulators of the 5-HT2A serotonin receptor useful for the treatment of disorders related thereto” (Arena Pharmaceuticals, Inc., priority 2006, dated 2014).
# Counter-ions that a name gives are not always drawn.
# Test system: JC virus
# Test: not given
# Settings: cited from earlier work
row,SMILES,JC virus infection of human glial cells
1,O=C(c1ccc(F)cc1)C1CCN(CCn2c(=O)[nH]c3ccccc3c2=O)CC1 [ketanserin],inhibited
2,Cc1nc2sccn2c(=O)c1CCN1CCC(=C(c2ccc(F)cc2)c2ccc(F)cc2)CC1 [ritanserin],inhibited

# Biological target: human 5-HT2A receptor (Homo sapiens (Human), UniProt P28223)
# Test: [125I]DOI radioligand binding assay
# Settings: 0.5 nM [125I]DOI, membranes of COS7 cells transfected with human 5-HT2A receptor
# Description: For the IP accumulation assay (Example 10), HEK293 cells were transfected while for the DOI binding assay (Example 11) COS7 cells were transfected. Several protocols well known in the art can be used to transfect cells. The following protocol is representative of the transfection procedures used herein for COS7 or 293 cells.
# On day one, COS-7 cells were plated onto 24 well plates, usually 1×10^5 cells/well or 2×10^5 cells/well, respectively. On day two, the cells were transfected by first mixing 0.25 μg cDNA in 50 μL serum-free DMEM/well and then 2 μl lipofectamine in 50 μL serum-free DMEM/well. The solutions (“transfection media”) were gently mixed and incubated for 15-30 minutes at room temperature. The cells were washed with 0.5 mL PBS and then 400 μL of serum free media was mixed with the transfection media and added to the cells. The cells were then incubated for 3-4 hours at 37° C./5% CO2. Then the transfection media was removed and replaced with 1 mL/well of regular growth media.
# Compounds of the invention were tested for their ability to bind to a 5-HT2A receptor clone membrane preparation using a radioligand binding assay. Briefly, COS cells were transiently transfected with a pCMV expression vector containing a human 5-HT2A receptor (for the sequence of the receptor see U.S. Pat. No. 6,541,209, SEQ ID NO:24) as described in Example 9.
# COS7 cells transfected with recombinant human 5-HT2A receptors were cultured for 48 hr post transfection, collected, washed with ice-cold phosphate buffered saline, pH7.4 (PBS), and then centrifuged at 48,000×g for 20 min at 4° C. The cell pellet was then resuspended in wash buffer containing 20 mM HEPES pH 7.4 and 0.1 mM EDTA, homogenized on ice using a Brinkman polytron, and recentrifuged at 48,000×g for 20 min. at 4° C. The resultant pellet was then resuspended in 20 mM HEPES, pH 7.4, homogenized on ice, and centrifuged (48,000×g for 20 min at 4° C.). Crude membrane pellets were stored at −80° C. until used for radioligand binding assays.
# Radioligand binding assays for human 5-HT2A receptor was conducted using the 5-HT2 agonist [^125]DOI as radioligand. To define nonspecific binding, 10 μM DOI was used for all assays. For competitive binding studies, 0.5 nM [^125]DOI was used and compounds were assayed over a range of 0.01 nM to 10 μM. Assays were conducted in a total volume of 200 μl in 96-well Perkin Elmer GF/C filter plates in assay buffer (50 mM Tris-HCl, pH 7.4, 0.5 mM EDTA, 5 mM MgCl2, and 10 μM pargyline). Assay incubations were performed for 60 min at room temperature and were terminated by rapid filtration under vacuum pressure of the reaction mixture over Whatman GF/C glass fiber filters presoaked in 0.5% PEI using a Brandell cell harvestor. Filters were then washing several times with ice-cold wash buffer (50 mM Tris-HCl, pH 7.4). Plates were then dried at room temperature and counted in a Wallac microBeta scintillation counter.
# human 5-HT2A receptor, sequence (P28223 whole entry): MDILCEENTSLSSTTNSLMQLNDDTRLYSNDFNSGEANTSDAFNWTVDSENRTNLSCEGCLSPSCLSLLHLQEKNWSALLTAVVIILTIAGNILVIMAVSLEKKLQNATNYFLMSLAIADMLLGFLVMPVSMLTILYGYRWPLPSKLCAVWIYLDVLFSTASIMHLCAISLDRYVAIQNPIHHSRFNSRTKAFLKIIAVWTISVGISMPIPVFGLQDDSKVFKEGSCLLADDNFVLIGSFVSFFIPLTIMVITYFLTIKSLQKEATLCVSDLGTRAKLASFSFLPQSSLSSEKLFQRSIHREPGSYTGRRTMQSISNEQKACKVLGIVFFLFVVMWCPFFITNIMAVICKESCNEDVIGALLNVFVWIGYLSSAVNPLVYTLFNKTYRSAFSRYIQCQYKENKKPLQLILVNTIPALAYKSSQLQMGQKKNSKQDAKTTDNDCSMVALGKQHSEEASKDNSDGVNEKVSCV
row,SMILES,IC50 [nM]
1,"Cn1ncc(Cl)c1-c1cc(NC(=O)c2ccc(F)c(C(F)(F)F)c2)ccc1OCCN [Compound 197, N-[4-(2-amino-ethoxy)-3-(4-chloro-2-methyl-2H-pyrazol-3-yl)-phenyl]-4-fluoro-3-trifluoromethyl-benzamide trifluoroacetate]",1
2,"Cn1ncc(Cl)c1-c1cc(NC(=O)C2CCC(C(F)(F)F)CC2)ccc1OCCN (stereo not shown) [Compound 303, 4-trifluoromethyl-cyclohexanecarboxylic acid [4-(2-amino-ethoxy)-3-(4-chloro-2-methyl-2H-pyrazol-3-yl)-phenyl]-amide trifluoroacetate]",0.26

# The remaining lines, values ahead:
row,IC50 [nM],SMILES
1,91,"Cn1nccc1-c1cc(NC(=O)c2ccno2)ccc1OCCN [Compound 106, Isoxazole-5-carboxylic acid [4-(2-amino-ethoxy)-3-(2-methyl-2H-pyrazol-3-yl)-phenyl]-amide]"
2,1.2,"Cn1ncc(Cl)c1-c1cc(NC(=O)c2cc(Br)cs2)ccc1OCCN [Compound 77, 4-bromo-thiophene-2-carboxylic acid [4-(2-amino-ethoxy)-3-(4-chloro-2-methyl-2H-pyrazol-3-yl)-phenyl]-amide trifluoroacetate]"
3,0.025,"Cn1nccc1-c1cc(NC(=O)C(=O)c2ccc(F)cc2)ccc1OCCN [Compound 32, N-[4-(2-Amino-ethoxy)-3-(2-methyl-2H-pyrazol-3-yl)-phenyl]-2-(4-fluoro-phenyl)-2-oxo-acetamide]"
